According to patent publication EP0306300B1, “Pyrrolo(1,2-a)imidazole and imidazo(1,2-a)pyridine derivatives and their use as 5-lipoxygenase pathway inhibitors” (SMITHKLINE BEECHAM CORPORATION, priority 1987, dated 1989):
Read-outs that look alike come from different tables or passages of the source.

What was measured:
[1] = system: arachidonic acid-induced edema in mice; test: Arachidonic acid-induced mouse ear inflammation (ear swelling); type: in vivo, male Balb/c mice; details: po; for ED50: mouse, read-out: AAEE(MOUSE ED50 mg/kg (po))
Procedure: In the tests used to determine activity as 5-lipoxygenase pathway inhibitors, male Balb/c mice (20-28 g), were used. All mice were obtained from Charles River Breeding Laboratories, Kingston, N.Y. Within a single experiment, mice were age matched.
Reagents were employed as follows: Compounds of Formula (I) were each used as the free base. The compounds were homogenized in 0.5% tragacanth. Compounds were administered by […] at the indicated dose in a final volume of 10 ml/kg.
Arachidonic acid in acetone (2 mg/20 »l) was applied to the inner surface of the left ear. The thickness of both ears was then measured with a dial micrometer one hour after treatment, and the data were expressed as the change in thickness (10⁻³ cm) between treated and untreated ears.
Test compounds were given orally in acid/saline at the times indicated in the text prior to the topical application of arachidonic acid.
Dermatol., 82, 367-371 (1984)].

5-Lipoxygenase = target: T1, 5-Lipoxygenase (Rattus norvegicus, UniProt P12527); test: Assay of 5-lipoxygenase activity in RBL-1 high speed supernatant; type: biochemical; details: read-out: 5-LO IC50
T1 construct: the supernatant was centrifuged at 100,000 x g for 60 min; host or cells: RBL-1 cells (soluble cell extract, high-speed supernatant)
T1 sequence (P12527 1-673): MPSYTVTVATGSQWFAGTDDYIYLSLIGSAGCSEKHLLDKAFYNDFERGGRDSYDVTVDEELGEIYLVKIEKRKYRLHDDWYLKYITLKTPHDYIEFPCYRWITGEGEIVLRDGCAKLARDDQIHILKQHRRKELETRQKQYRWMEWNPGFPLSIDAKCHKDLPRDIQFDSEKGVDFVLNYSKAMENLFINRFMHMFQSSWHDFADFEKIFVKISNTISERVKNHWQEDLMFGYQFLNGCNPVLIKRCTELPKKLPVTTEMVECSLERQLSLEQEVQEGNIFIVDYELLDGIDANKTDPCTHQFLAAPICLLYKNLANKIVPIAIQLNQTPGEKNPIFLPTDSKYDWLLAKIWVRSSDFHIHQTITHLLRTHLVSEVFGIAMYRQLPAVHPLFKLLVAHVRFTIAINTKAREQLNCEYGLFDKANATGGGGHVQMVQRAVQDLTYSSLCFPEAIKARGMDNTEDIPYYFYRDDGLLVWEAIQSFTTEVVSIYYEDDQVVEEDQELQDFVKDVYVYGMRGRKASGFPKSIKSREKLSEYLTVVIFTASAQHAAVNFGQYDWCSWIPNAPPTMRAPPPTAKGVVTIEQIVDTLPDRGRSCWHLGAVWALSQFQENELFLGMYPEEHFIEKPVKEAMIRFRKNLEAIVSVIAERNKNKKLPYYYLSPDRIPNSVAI
Procedure: For in vitro experiments, compounds were dissolved at appropriate concentrations in ethanol (final concentration 1.0%) and then diluted to final concentrations using the buffers indicated in the text.
The activities of these enzymes in extracts of RBL-1 cells were assayed using the method of Jakschik and Lee, Nature, 287, 51-52 (1980). RBL-1 cells were obtained from the American Type Culture Collection (#CRL 1378) and were grown at 37°C (5% CO₂ in air) in spinner culture in MEM supplemented with 10% heat inactivated fetal calf serum. Harvested cells were washed with 50 mM sodium phosphate buffer, pH 7.0, containing 1 mM EDTA and 0.1% gelatin, resuspended in fresh buffer (5 x 10⁷ cells/ml) and disrupted by nitrogen cavitation using the Parr bomb at 750 psi for 10 min. The broken cell extract was then centrifuged at 10,000 x g for 20 minutes (min) and the supernatant was centrifuged at 100,000 x g for 60 min. Aliquots (0.25 mls) of the supernatant were preincubated with or without drugs for 10 min, after which 10 ul CaCl₂ (2 mM) was added and the reaction was initiated with 2.5 »l of 2.5 mM arachidonic acid-1-¹⁴C (final concentration was 25 »M; specific activity 20,000 dpm/nmole). After incubation for 5 minutes at 37°C, the reaction was terminated by addition of 2 volumes (0.5 ml) ice cold acetone and the sample was allowed to deproteinize on ice for 10 minutes prior to centrifugation at 1,000 x g for 10 minutes. The deproteinized supernatant was adjusted to pH 3.5 with 2N formic acid and extracted with 2 volumes of ice cold ethyl acetate. The extracted samples were dried under argon, redissolved in ethyl acetate and applied to Whatman LK5D thin layer chromatography (TLC) plates which were developed using the A-9 solvent system [organic phase of ethyl acetate: […]:acetic acid: water (110:50:20:10)] described by Hamberg and Samuelsson, J. Biol. Chem., 241, 257-263 (1966). Arachidonic acid, 5-HETE, LTB₄ and PGD₂ were quantified with a Berthold LB 2832 autoscanner.
Under these conditions, only the 5-lipoxygenase pathway metabolites were detectable. The 5-HETE and di-HETEs were formed at a linear rate, and […] amounts of the arachidonic acid-1-¹⁴C substrate were utilized.

[2] = Cytochrome P-450 inhibition (ethoxycoumarin-O-deethylase activity, phenobarbital-induced microsomes); details: rat, liver microsomes
[3] = LTB4 production by RBL-1 high speed supernatant

For `C[S+]([O-])c1ccc(-c2nc3n(c2-c2ccncc2)CCC3)cc1` (centres unmarked) [Compound 2, 2-(4-Methylsulfinylphenyl)-3-(4-pyridyl)-6,7-dihydro-[5H]-pyrrolo[1,2-a]imidazole], the inhibition at 50 mg/kg ([1]; Mus musculus, 1 h, 50 mg/kg p.o., ear thickness one hour after 2 mg arachidonic acid) was 44%, the ED50 [1] was 44 mg/kg and the IC50 (5-Lipoxygenase; [3]) was > 100 µM. For the same molecule, the IC50 (5-Lipoxygenase; total HETE and Di-HETE production by RBL-1 high speed supernatant) was > 100 µM and the IC50 [2] was 866 µM.

For `CSc1ccc(-c2nc3n(c2-c2ccncc2)CCC3)cc1` [Compound 1, 2-(4-Methylthiophenyl)-3-(4-pyridyl)-6,7-dihydro-[5H]-pyrrolo[1,2-a]imidazole], the ED50 [1] was 20 mg/kg, the IC50 (5-Lipoxygenase; [3]) was 20 µM and the IC50 [2] was 43.7 µM.
